This is an account of results in patent publication US9783535B2 (priority 2012, dated 2017).

The target of one data set is a3b4 nAChRs (Homo sapiens, UniProt P30926+P32297). Description: Relative potency at a3b4 nAChRs, epibatidine-induced calcium response. It counts as cell-based. On the procedure: The HEK293 (a3b4, a4b2 and a7) and SH-SY5Y cell lines (a3b4) expressing nAChRs are used. Validated assays optimized with respect to sensitivity, dynamic range, signal intensity and stability for chemical probe validation and SAR refinement are used.
Nicotinic functional assays are performed using the Molecular Devices FLIPR® Calcium 5 Assay Kit. HEK293 cells overexpressing α3β4, α4β2 or α7 (50,000 cells per well in 100 μl growth media) and are plated in clear bottom black walled 96-well microplates and incubated for 24-48 hours at 37° C., 5% CO2 until a 80-90% confluent monolayer is formed. On the day of the assay, 100 μl of Calcium 5 Dye is added to each well. Following addition of dye, cells are incubated at 25° C. for 60 minutes. Following dye loading, 50 μl of a 5× solution of reference or test compound of appropriate concentration range (0.01-30 μM), prepared in 20 mM HEPES pH 7.4 in HBSS, is added to each well. Plates are then transferred to the Molecular Devices Flexstation® which transfers 50 μL of a 5× solution (500 nM) of epibatine to each well to initiate the Ca+2 flux. Additional wells (in quadruplicate) are prepared with no added test or reference ligand for measurement of 100% flux. The RFU (relative fluorescence units) in the presence of the test or reference compounds is then expressed on the percent scale. The percent inhibition of epibatidine induced Ca^+2 flux is calculated as follows: % inhibition=100%−% RFU (relative fluorescence units). The IC50 values for reference and test compounds are obtained by fitting normalized RFU data using Graphpad Prism software.

Data set [1] can be described thus: CNS penetration across the blood brain barrier. Also noted: species or system mice. The conditions noted are these: mouse, in vivo. The method, then:
Mice are dosed with compounds. Brain to blood ratios are determined by HPLC and LC/MS/MS analysis following oral administration of the test compounds in mice.

Data set [2] relates to panel of over 50 receptors, transporters, ion channels, second messengers, growth factor receptors and enzymes. Put plainly: Binding panel at physiologically relevant concentrations. From the text:
The association between cigarette smoking and the presence and severity of suicidal behavior across major psychiatric disorders may be related to lower brain serotonin function in smokers with depression).

Data set [3] deals with T1, kappa opioid receptor (kOR) (Homo sapiens, UniProt P41145).
T1 construct: expressed in transfected cells; host or cells: CHO or HEK293 (membranes)
Description: Kappa opioid receptor binding. The conditions noted are these: read-out: Affinity at kappa opioid receptor. The method, then:
Established radioligand binding methods are used to evaluate the ability of the compounds to block reuptake of scrotonin and dopamine in membrane preparations of synaptosomes. Equilibrium binding affinity values is determined for each compound at opioid receptors (μ and κ subtypes) and biogenic amine transporters (DAT and SERT). Where possible, binding experiments utilize membranes derived from CHO or HEK293 cells engineered to overexpress the human form of the receptor or transporter of interest. Radiolabeling of opioid receptors, and biogenic amine transporters utilizes conventional radioligands, buffers and incubation conditions according to published assays.
Test compounds, reference compounds and the radioligand (Kd value) are added to binding buffer. Assays are run with test or reference compound over a range of concentration (0.0001-10 uM) in triplicate using a 96-well sample plate containing radioligands specific for the target receptor or transporter. […] Bound radioactivity is counted in a Microbeta scintillation counter. Total bound radioactivity is estimated from triplicate wells containing no test or reference compound, together with nonspecific binding and filter blanks. The average bound radioactivity in the presence of the test compounds is expressed % inhibition=100%−% radioactivity bound. […]

a3b4 nAChRs, sequence (P32297 32-505): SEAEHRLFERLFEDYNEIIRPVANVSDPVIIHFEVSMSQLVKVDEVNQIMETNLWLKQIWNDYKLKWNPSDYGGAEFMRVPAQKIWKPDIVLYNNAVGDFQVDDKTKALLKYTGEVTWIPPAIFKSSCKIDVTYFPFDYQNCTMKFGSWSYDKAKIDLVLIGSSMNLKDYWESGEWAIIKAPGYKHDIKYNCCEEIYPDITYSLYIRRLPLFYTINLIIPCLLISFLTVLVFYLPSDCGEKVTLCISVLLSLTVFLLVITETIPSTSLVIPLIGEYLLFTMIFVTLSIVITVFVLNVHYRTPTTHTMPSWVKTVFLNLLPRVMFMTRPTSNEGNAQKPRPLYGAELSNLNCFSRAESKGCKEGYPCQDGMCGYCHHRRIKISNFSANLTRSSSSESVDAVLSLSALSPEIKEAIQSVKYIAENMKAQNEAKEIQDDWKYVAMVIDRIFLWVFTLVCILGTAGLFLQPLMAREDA
a3b4 nAChRs, sequence (P30926 22-498): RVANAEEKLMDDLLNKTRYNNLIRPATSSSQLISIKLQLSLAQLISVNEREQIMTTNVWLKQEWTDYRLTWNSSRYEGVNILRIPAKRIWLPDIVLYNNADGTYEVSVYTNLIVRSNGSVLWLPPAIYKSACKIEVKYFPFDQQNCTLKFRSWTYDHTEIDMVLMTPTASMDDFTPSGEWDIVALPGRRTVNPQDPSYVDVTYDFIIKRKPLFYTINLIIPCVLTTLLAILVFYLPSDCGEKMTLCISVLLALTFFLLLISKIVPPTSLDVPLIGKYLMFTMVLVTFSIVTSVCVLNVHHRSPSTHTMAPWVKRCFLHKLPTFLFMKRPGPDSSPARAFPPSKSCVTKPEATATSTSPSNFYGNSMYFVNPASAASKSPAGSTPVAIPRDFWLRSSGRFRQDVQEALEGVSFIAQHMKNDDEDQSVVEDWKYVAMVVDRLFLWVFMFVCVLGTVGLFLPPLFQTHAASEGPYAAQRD
T1 sequence (P41145 whole entry): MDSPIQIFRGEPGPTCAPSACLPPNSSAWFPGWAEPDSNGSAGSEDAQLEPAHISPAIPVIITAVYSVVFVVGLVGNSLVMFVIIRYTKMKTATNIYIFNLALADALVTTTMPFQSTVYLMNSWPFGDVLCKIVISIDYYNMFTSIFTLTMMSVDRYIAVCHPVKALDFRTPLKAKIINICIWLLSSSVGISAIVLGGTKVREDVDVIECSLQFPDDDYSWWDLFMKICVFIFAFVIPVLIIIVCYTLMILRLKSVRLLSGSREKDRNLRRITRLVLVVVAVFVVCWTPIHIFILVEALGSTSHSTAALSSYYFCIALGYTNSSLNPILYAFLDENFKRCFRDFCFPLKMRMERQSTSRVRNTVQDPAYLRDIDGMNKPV

As to `COCC[C@H]1CC2CN3CCc4c([nH]c5ccccc45)[C@](C(=O)OC)(C2)[C@H]13` [Compound 18-MC, 18-methoxycoronaridine], on a3b4 nAChRs (a3b4 nAChRs, bracketed value in Table 4), the “IC50 of the reference 18-MC behind the ratio” value was determined as 4 µM. Further, on a3b4 nAChRs (relative potency at a3b4 nAChRs, 18-MC = 1), the “Ratio from 18-MC” value was found to be 1. The “Crossing of the BBB and brain concentration” value in data set [1] was “cross the BBB and reach micromolar concentrations in brain”.

Take `CC[C@H]1CC2C[C@H]3c4[nH]c5ccc(O)cc5c4CCN(C2)C13` [Noribogaine, 12-hydroxyibogamine]: the “Targets bound in the panel” value in data set [2] was “only bound to SERT, DAT, mu and kappa opioid receptors”. Also, the “Crossing of the BBB and brain concentration” value in data set [1] was “cross the BBB and reach micromolar concentrations in brain”. In addition, the Ki in data set [3] was found to be 1 µM.

On to Ibogaine, for which, on a3b4 nAChRs (a3b4 nAChRs), the “Potency as inhibitor of the epibatidine-induced calcium response compared with 18-MC and noribogaine” value is “more potent inhibitors than 18-MC (18-methoxycoronaridine) and noribogaine”.
